Here are results for three molecules from publication PMC8770593 (Nature Communications, 2022).

Changes are numbered by the printed parent chain. Values joined by “and” are separate entries in the source; they are usually repeats but may differ in a detail not shown here. Equal values may be shown once. Read-outs that look alike come from different tables or passages of the source.

In assay [1] the test system is stabilized α1BAR mutant with L334 and L334F back-mutant. To be noted: saturation binding, whole E. coli cells, L334 vs L334F back-mutant.
For a further assay, the target named is T1, α1BAR D191^ECL2→Y (Homo sapiens, UniProt P35368, D191Y).
T1 construct: harboring the wild-type helix 8 and the full-length C-terminus as well as the entire ICL3; expressed in transfected cells; host or cells: HEK293T/17
T1 sequence (P35368 1-520 D191Y): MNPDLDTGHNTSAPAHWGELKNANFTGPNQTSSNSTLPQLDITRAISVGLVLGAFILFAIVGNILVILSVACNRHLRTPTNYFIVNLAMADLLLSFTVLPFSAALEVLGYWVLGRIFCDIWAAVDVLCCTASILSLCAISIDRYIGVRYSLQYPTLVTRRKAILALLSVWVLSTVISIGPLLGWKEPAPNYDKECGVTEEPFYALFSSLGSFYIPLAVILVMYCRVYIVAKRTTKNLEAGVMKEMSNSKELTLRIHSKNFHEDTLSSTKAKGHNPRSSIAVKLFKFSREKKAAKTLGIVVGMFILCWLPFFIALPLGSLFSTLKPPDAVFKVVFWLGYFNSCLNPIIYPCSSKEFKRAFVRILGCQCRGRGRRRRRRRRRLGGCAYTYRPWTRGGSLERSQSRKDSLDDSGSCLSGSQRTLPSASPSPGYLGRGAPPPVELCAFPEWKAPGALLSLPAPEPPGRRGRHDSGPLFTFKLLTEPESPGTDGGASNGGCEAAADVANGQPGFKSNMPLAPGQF
In words: Agonist-induced IP1 accumulation (Gq signaling, HTRF IP-One) in transfected HEK293T/17 cells. To be noted: for IP1 concentration: D191Y, listed as PE. The assay is classed as cell-based. Here is the method:
(§1) Signaling assays were performed with receptor constructs harboring the wild-type helix 8 and the full-length C-terminus as well as the entire ICL3. Agonist-induced IP1 accumulation was measured in transiently transfected HEK293T/17 cells, as described before. […] IP1 accumulation was measured using the HTRF IP-One kit (Cisbio) according to the manufacturer’s protocol on a SPARK fluorescence plate reader (Tecan).
A general note: TR-FRET usually uses a lanthanide donor and a delayed reading to cut background.

A further assay has as its target T2, α1BAR V124^3.31→M (Homo sapiens, UniProt P35368, V124M).
T2 construct: harboring the wild-type helix 8 and the full-length C-terminus as well as the entire ICL3; expressed in transfected cells; host or cells: HEK293T/17
The description is as above. The format is cell-based. Here is the method: as §1

For another assay, the target named is T3, α1BAR V333^7.38→L (Homo sapiens, UniProt P35368, V333L).
T3 construct: harboring the wild-type helix 8 and the full-length C-terminus as well as the entire ICL3; expressed in transfected cells; host or cells: HEK293T/17
The assay is described as above. The format is cell-based. Here is the method:
as §1

The target of the next assay is T4, wild-type α1BAR (Homo sapiens, UniProt P35368).
T4 construct: harboring the wild-type helix 8 and the full-length C-terminus as well as the entire ICL3; expressed in transfected cells; host or cells: HEK293T/17
Described as above. The assay is classed as cell-based. To be noted: reference construct. Here is the method:
as §1

The target in a further assay is T5, α1BAR E194^ECL2→V (Homo sapiens, UniProt P35368, E194V).
T5 construct: harboring the wild-type helix 8 and the full-length C-terminus as well as the entire ICL3; expressed in transfected cells; host or cells: HEK293T/17
Described as above. The assay is classed as cell-based. Here is the method:
as §1

A further assay concerns the target T6, α1BAR T295^6.36→M (Homo sapiens, UniProt P35368, T295M).
T6 construct: harboring the wild-type helix 8 and the full-length C-terminus as well as the entire ICL3; expressed in transfected cells; host or cells: HEK293T/17
The assay is described as above. The assay is classed as cell-based. How it is done:
as §1

A further assay deals with T7, α1BAR I116^3.23→T (Homo sapiens, UniProt P35368, I116T).
T7 construct: harboring the wild-type helix 8 and the full-length C-terminus as well as the entire ICL3; expressed in transfected cells; host or cells: HEK293T/17
The description is as above. The format is cell-based. Here is the method:
as §1

Another assay has as its target T8, α1BAR S168^4.48→C (Homo sapiens, UniProt P35368, S168C).
T8 construct: harboring the wild-type helix 8 and the full-length C-terminus as well as the entire ICL3; expressed in transfected cells; host or cells: HEK293T/17
T8 sequence (P35368 1-520 S168C): T1 sequence (P35368 1-520 D191Y) with S168C, Y191D
Described as above. The assay is classed as cell-based. To be noted: for IP1 concentration: S168C, listed as PE. Here is the method: as §1

The target of the next assay is T9, α1BAR S95^2.54→C (Homo sapiens, UniProt P35368, S95C).
T9 construct: harboring the wild-type helix 8 and the full-length C-terminus as well as the entire ICL3; expressed in transfected cells; host or cells: HEK293T/17
T9 sequence (P35368 1-520 S95C): T1 sequence (P35368 1-520 D191Y) with S95C, Y191D
Described as above. To be noted: for IP1 concentration: S95C, listed as PE. The assay is classed as cell-based. Here is the method: as §1

For the next assay, the target named is T10, α1BAR P349^7.54→L (Homo sapiens, UniProt P35368, P349L).
T10 construct: receptor constructs harboring the wild-type helix 8 and the full-length C-terminus as well as the entire ICL3; expressed in transfected cells; host or cells: HEK293T/17
Described as above. The format is cell-based. Here is the method: as §1

For the next assay, the target named is T11, α1BAR S150^34.50→Y (Homo sapiens, UniProt P35368, S150Y).
T11 construct: harboring the wild-type helix 8 and the full-length C-terminus as well as the entire ICL3; expressed in transfected cells; host or cells: HEK293T/17
The assay is described as above. The format is cell-based. Here is the method:
(§2) Signaling assays were performed with receptor constructs harboring the wild-type helix 8 and the full-length C-terminus as well as the entire ICL3. Agonist-induced IP1 accumulation was measured in transiently transfected HEK293T/17 cells, as described before. Twenty-four hours after transfection, cells were washed with phosphate-buffered saline (PBS), detached with trypsin-EDTA (Sigma), and resuspended in assay buffer (10 mM HEPES pH 7.4, 1 mM CaCl2, 0.5 mM MgCl2, 4.2 mM KCl, 146 mM NaCl, 50 mM LiCl, 5.5 mM glucose, 0.1% (w/v) BSA). […] IP1 accumulation was measured using the HTRF IP-One kit (Cisbio) according to the manufacturer’s protocol on a SPARK fluorescence plate reader (Tecan).

For the next assay, the target named is T12, α1BAR G183^4.63→V (Homo sapiens, UniProt P35368, G183V).
T12 construct: harboring the wild-type helix 8 and the full-length C-terminus as well as the entire ICL3; expressed in transfected cells; host or cells: HEK293T/17
The description is as above. The assay is classed as cell-based. Here is the method: as §2

Assay [2] relates to α1BAR expressed in mammalian cells. To be noted: ref Docherty, J. R., Eur. J. Pharmacol. 855, 305-320 (2019), cited from earlier work; for Kd: α1BAR expressed in mammalian cells.
In assay [3] the test system is α1BAR expressed in E. coli. Details: method as in ref Schuster, M. et al., Biochim. Biophys. Acta Biomembr. 1862, 183354 (2020). To be noted: ref Schuster, M. et al., Biochim. Biophys. Acta Biomembr. 1862, 183354 (2020), read-out: affinity; cited from earlier work.

T5 sequence (P35368 whole entry E194V): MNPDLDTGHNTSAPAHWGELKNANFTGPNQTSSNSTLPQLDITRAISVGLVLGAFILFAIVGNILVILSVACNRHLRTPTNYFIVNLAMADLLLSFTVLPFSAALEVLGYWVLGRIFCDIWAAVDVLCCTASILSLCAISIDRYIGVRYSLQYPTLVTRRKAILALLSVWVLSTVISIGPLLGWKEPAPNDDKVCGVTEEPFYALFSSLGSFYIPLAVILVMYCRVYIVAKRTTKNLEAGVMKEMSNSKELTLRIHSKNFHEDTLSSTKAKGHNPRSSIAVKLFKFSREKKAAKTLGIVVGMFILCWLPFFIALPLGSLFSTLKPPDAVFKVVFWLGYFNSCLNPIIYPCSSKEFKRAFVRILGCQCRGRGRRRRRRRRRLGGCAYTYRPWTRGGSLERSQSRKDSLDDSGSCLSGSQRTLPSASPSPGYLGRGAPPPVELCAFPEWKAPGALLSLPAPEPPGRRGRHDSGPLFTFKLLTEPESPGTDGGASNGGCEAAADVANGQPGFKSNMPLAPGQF
T4 sequence (P35368 whole entry): as the sequence (P35368 whole entry E194V) above, with V194E counted along it
T6 sequence (P35368 whole entry T295M): as the sequence (P35368 whole entry E194V) above, with V194E, T295M counted along it
T7 sequence (P35368 whole entry I116T): as the sequence (P35368 whole entry E194V) above, with I116T, V194E counted along it
T11 sequence (P35368 whole entry S150Y): as the sequence (P35368 whole entry E194V) above, with S150Y, V194E counted along it
T12 sequence (P35368 whole entry G183V): as the sequence (P35368 whole entry E194V) above, with G183V, V194E counted along it
T10 sequence (P35368 whole entry P349L): as the sequence (P35368 whole entry E194V) above, with V194E, P349L counted along it
T3 sequence (P35368 whole entry V333L): as the sequence (P35368 whole entry E194V) above, with V194E, V333L counted along it
T2 sequence (P35368 whole entry V124M): as the sequence (P35368 whole entry E194V) above, with V124M, V194E counted along it

On to `COc1cc2nc(N3CCN(C(=O)c4ccco4)CC3)nc(N)c2cc1OC` [3H-prazosin], for which the “impact of the L334/F334 mutation on affinity” value in assay [1] was “only a minor impact”.
As usually defined, the Emax is the size of the effect at its maximum, as opposed to the concentration needed. Take `CNC[C@H](O)c1cccc(O)c1` [Phenylephrine]: the IP1 concentration at α1BAR D191^ECL2→Y ([PE] -4 log M) was 519.698 and 441.949 and 662.352 and 730.409 and 630.141 and 710.683; on α1BAR D191^ECL2→Y ([PE] -4.69897 log M), 370.913 and 393.347 and 353.075 and 528.612 and 529.351 and 631.077; on α1BAR D191^ECL2→Y ([PE] -5.39794 log M) it was 322.315 and 263.99 and 343.654 and 369.218 and 447.164 and 499.2; at α1BAR E194^ECL2→V (E194V, [PE] -4 log M, listed as PE), 499.282 and 565.119 and 803.974 and 817.17 and 667.593 and 781.933; at α1BAR S168^4.48→C ([PE] -4 log M), 678.88 and 634.809 and 694.6 and 789.857 and 654.693 and 717.983; at α1BAR S168^4.48→C ([PE] -4.69897 log M), 546.031 and 536.624 and 592.13 and 637.69 and 619.808 and 699.597. Also, the IP1 concentration on α1BAR S168^4.48→C ([PE] -5.39794 log M) is 630.294 and 403.102 and 536.003 and 572.191 and 548.559 and 641.7; at α1BAR S168^4.48→C ([PE] -6.09691 log M) it was 373.984 and 293.041 and 368.158 and 357.195 and 468.9 and 570.413; on α1BAR S168^4.48→C ([PE] -6.79588 log M) it was 213.187 and 230.01 and 327.882 and 336.101 and 329.963 and 356.634; at α1BAR S95^2.54→C ([PE] -4 log M) it was 377.435 and 437.765 and 593.664 and 690.124 and 481.642 and 456.558; at α1BAR S95^2.54→C ([PE] -4.69897 log M), 323.191 and 422.658 and 500.281 and 586.924 and 403.917 and 432.8; on α1BAR S95^2.54→C ([PE] -5.39794 log M), 269.373 and 257.6 and 377.64 and 428.644 and 333.33 and 361.512. Besides, the Emax was 89.6 ± 4.7% on α1BAR D191^ECL2→Y (HEK293T/17, IP1 accumulation); 84.2 ± 6.3% at α1BAR V124^3.31→M; 79.8 ± 5.2% at α1BAR V333^7.38→L; 100% on wild-type α1BAR; 85.4 ± 7.4% on α1BAR E194^ECL2→V (HEK293T/17, IP1 accumulation); 50.7 ± 5.9% on α1BAR T295^6.36→M. Moreover, the Emax on α1BAR I116^3.23→T is 71.2 ± 6.4%; on α1BAR S168^4.48→C (HEK293T/17, IP1 accumulation), 96.8 ± 8%; on α1BAR S95^2.54→C (HEK293T/17, IP1 accumulation), 71.9 ± 5.7%; on α1BAR P349^7.54→L it was 27.3 ± 4.1%; at α1BAR S150^34.50→Y, 13.4 ± 1.7%; at α1BAR G183^4.63→V, 9 ± 18.5%.
For `COc1cc2nc(N3CCN(C(=O)c4ccco4)CC3)nc(N)c2cc1OC` [prazosin], in [2] (radioligand binding), the “affinity as pK value (RLBA)” value was 9.26–10.3. Further, the Kd in assay [2] (read-out: affinity range reported in the literature) is 0.05 to 0.55 nM; in [2] (read-out: mean affinity reported in the literature), 0.11 nM; in [3] it was 0.074 nM.
